Tests used:
[1] = test system: Chronic Obstructive Pulmonary Disease in Rats; experiment: Serum TNF-α and IL-8 in rats with chronic obstructive pulmonary disease (LPS + smoking); assay type: in vivo, SD rats; details: 2.5 mg/kg gavage
Experimental: After adaptive feeding (20-25° C., a humidity of 50-60%) for 1 week, the rats were randomly divided into a blank group, a model group, a positive control group, a ginsenoside Rd high-dose group, and a ginsenoside Rd low-dose group, with ten rats in each group.
Model group: on the Day 1 and Day 14, each rat was intraperitoneally injected with 10% chloral hydrate (300 mg/kg) for anesthesia; the head was fixed in a low position; the glottis was exposed; lipopolysaccharide was quickly injected into the trachea; and the rat was kept upright, and swung left and right for 10-20 s, such that the lipopolysaccharide was evenly distributed in the two lungs. On the Days 2-13, and 15-28, the lungs were smoked in a closed organic glass box for 30 min every day, with 15 cigarettes per day.
Positive control group: the animal was anesthetized, and intratracheally injected with lipopolysaccharide, wherein smoking conditions and time were the same as those of the model group; and after tracheal injection of lipopolysaccharide for two weeks, the animal was administrated with Simvastatin by gavage (2.5 mg/kg), and killed after six weeks, and serum was collected.
In accordance with the instructions, the levels of TNF-α and IL-8 in the serum were detected by enzyme-linked immunosorbent assay. The data was expressed as x±s, p<0.05, which meant that it was statistically significant.

[2] = test system: Chronic Obstructive Pulmonary Disease in Rats; experiment: Lung pathomorphology of rats with chronic obstructive pulmonary disease; assay type: in vivo, SD rats; details: po, 2.5 mg/kg
[3] = test system: xylene-induced swelling of mouse ears; experiment: Xylene-induced swelling of mouse ears; assay type: in vivo, Kunming mice
Experimental: […] KM mice, weighing 18-22 g, were randomly grouped, with ten mice in each group. The groups include a model group, a positive control group (Indomethacin, 10 mg/kg), a ginsenoside Rd low-dose group (5 mg/kg), and a ginsenoside Rd high-dose group (10 mg/kg). After 30 min of gavage administration of mice (the model group was administrated with the equal volume of 0.5% sodium carboxymethylcellulose by gavage), 0.03 ml of xylene was evenly applied to both sides of the right ear of each mouse in each group to cause inflammations on both sides, and the left ear of the mouse was not applied as a control. After 4 h, the mouse was killed by dislocation of cervical vertebra, the two ears of the mouse were cut off along the auricle, round ear slices of the same size (a diameter of 6 mm) were taken at the same position of the left and right ears and weighed respectively, a mass difference of the two ear slices was used as an ear swelling degree, and a swelling inhibition rate was calculated.

[4] = test system: mice infected with COVID-19 Delta virus; experiment: Lung histopathology of mice infected with COVID-19 Delta virus; assay type: in vivo, hACE2 transgenic C57BL/6 mice; details: number of mice with this degree (four per group); 5 mg/kg gavage once a day, five days
[5] = test system: mice with acute lung injury; experiment: Inflammatory factors (ELISA) in lung tissue and alveolar lavage fluid of mice with LPS acute lung injury; assay type: in vivo, Balb/c mice; details: 5 mg/kg intraperitoneal 1 h before LPS; 24 h after modeling
Experimental: Balb/c male mice, weighing 20-22 g, were randomly divided into five groups according to body weights, with eight mice in each group: a blank control group (propylene glycol-0.5% carboxymethylcellulose sodium), a model group (LPS, 15 mg/kg), a ginsenoside Rd low-dose group (10 mg/kg), a ginsenoside Rd high-dose group (20 mg/kg), and a Dexamethasone group (5 mg/kg). Mice in each group were intraperitoneally injected; after 1 h of administration, except for the blank control group, the mice in each group were intratracheally instilled with 20 μg of LPS for modeling; and the blank control group was intratracheally instilled with an equal volume of PBS.
After 1 h of administration, a mouse ALI model was established; each mouse was intraperitoneally injected with sodium pentobarbital at 30 mg/kg, anesthetized and fixed on an operating table dorsally; skin preparation was carried out on the neck; the skin was incised to expose the trachea; 20 μg of LPS was instilled into the trachea using a microglass syringe; and then the mouse was gently rotated head up on the operating table, such that the instilled liquid was evenly distributed in the mouse lungs, and the skin incision was sutured.
After 24 h of modeling, anesthetized mice were intraperitoneally injected with sodium pentobarbital at 30 mg/kg; lung tissues of the mice were taken and rinsed repeatedly in pre-cooled normal saline; the lung tissues were blood-removed, wiped with filter paper, weighed, and added with normal saline according to a ratio of 1:9 (W:V=1 g:9 ml); a tissue homogenate was prepared with a homogenization machine under an ice water bath; and a supernatant of mouse lung tissue homogenate was taken.
The mouse was anesthetized, and the trachea was separated; the whole lung was lavaged with 0.5 ml of pre-cooled normal saline, stayed for 1 min, and slowly pumped back with a syringe, and this process was repeated three times; and BLAF was collected, and centrifuged for 15 min at 4° C. and 1600 rpm/min.
In strict accordance with the operating instructions of an enzyme-linked immunosorbent assay kit (ELISA), the contents of TNF-α, IL-1β, IL-6 and IL-18 in the supernatant of mouse lung tissue homogenate and the BLAF supernatant were detected.

[6] = test system: COVID-19 Delta virus-infected mice; experiment: IL-1β and MCP-1 expression (RT-qPCR) in lung homogenates of COVID-19 Delta virus-infected mice; assay type: in vivo, hACE2 transgenic C57BL/6 mice; details: mRNA, blank group 1.00; 5 mg/kg gavage; Day 5 of infection
[7] = 10 mg/kg gavage 30 min before xylene, 4 h after xylene

CCC(C)(C)C(=O)O[C@H]1C[C@@H](C)C=C2C=C[C@H](C)[C@H](CC[C@@H]3C[C@@H](O)CC(=O)O3)[C@H]21 [Simvastatin, reference compound]
IL-8 in serum [1]: 22.65 ± 11.56
TNF-α in serum [1]: 11.71 ± 13.27
Epithelial cell necrosis Mild [2]: 7
Epithelial cell necrosis Moderate [2]: 3
Epithelial cell necrosis Severe [2]: 0
Interstitial inflammatory cell infiltration Mild [2]: 6
Interstitial inflammatory cell infiltration Moderate [2]: 4
Interstitial inflammatory cell infiltration Severe [2]: 0

COc1ccc2c(c1)c(CC(=O)O)c(C)n2C(=O)c1ccc(Cl)cc1 [Indomethacin, reference compound]
Ear mass difference [3, 7]: 10.87 ± 0.53 mg
Swelling degree [3, 7]: 6.48 ± 1.89 (mg) (%)
inhibition at 10 mg/kg ([3]; Mus musculus, po, ear swelling, 10 mg/kg gavage, read-out: Inhibition rate): 40.3%

C[C@@H]1C[C@H]2[C@@H]3CCC4=CC(=O)C=C[C@]4(C)[C@@]3(F)[C@@H](O)C[C@]2(C)[C@@]1(O)C(=O)CO [Dexamethasone, reference compound]
Interstitial pneumonia Mild [4]: 3
Interstitial pneumonia Moderate [4]: 1
Interstitial pneumonia Severe [4]: 0
Pulmonary hemorrhage Mild [4]: 3
Pulmonary hemorrhage Moderate [4]: 1
Pulmonary hemorrhage Severe [4]: 0
IL-1β in alveolar lavage fluid [5]: 58.56 ± 16.24 ng/L
IL-1β in lung tissue [5]: 48.76 ± 12.76 ng/L
IL-6 in alveolar lavage fluid [5]: 36.89 ± 6.16 ng/L
IL-6 in lung tissue [5]: 49.73 ± 16.08 ng/L
IL-18 in alveolar lavage fluid [5]: 56.38 ± 9.40 ng/L
IL-18 in lung tissue [5]: 49.06 ± 15.41 ng/L
TNF-α in alveolar lavage fluid [5]: 222.58 ± 60.91 ng/L
TNF-α in lung tissue [5]: 58.64 ± 10.65 ng/L
IL-1β expression level in lung homogenate [6]: 9.26 ± 10.27
MCP-1 expression level in lung homogenate [6]: 6.27 ± 8.20
